# Like-named read-outs stand apart in the source and are kept apart here. Peptide text beside a SMILES is read from it.
# Details: human, in vivo; for Vd: mean apparent volume of distribution (Vz)
# 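Also: phase 1 study in human subjects given one IV dose of the peptide, enrolled in sequential ascending-dose cohorts and randomized to peptide or placebo.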
smiles,measurement,setting,value
CC(C)[C@H](NC(=O)[C@H](Cc1c[nH]c2ccccc12)NC(=O)[C@H](CCCNC(=N)N)NC(=O)[C@H](CCCNC(=N)N)NC(=O)[C@@H](NC(=O)[C@@H](NC(=O)[C@H](CCCNC(=N)N)NC(=O)[C@@H](NC(=O)[C@@H](NC(=O)[C@H](CCCNC(=N)N)NC(=O)[C@H](CCCNC(=N)N)NC(=O)[C@H](Cc1c[nH]c2ccccc12)NC(=O)[C@@H](NC(=O)[C@H](CCCNC(=N)N)NC(=O)[C@H](CCCNC(=N)N)NC(=O)[C@@H](NC(=O)[C@H](CCCNC(=N)N)NC(=O)[C@H](CCCNC(=N)N)NC(=O)[C@@H](NC(=O)[C@H](Cc1c[nH]c2ccccc12)NC(=O)[C@H](CCCNC(=N)N)NC(=O)[C@@H](N)CCCNC(=N)N)C(C)C)C(C)C)C(C)C)C(C)C)C(C)C)C(C)C)C(C)C)C(=O)N[C@@H](CCCNC(=N)N)C(=O)N[C@@H](CCCNC(=N)N)C(N)=O [SEQ ID NO: 1] (H-RRWVRRVRRVWRRVVRVVRRWVRR-NH2),Cmax,"iv, Cohort 4, 0.5 mg/kg IV infusion 2 hours, Median",1970 ng/mL
same,Cmax,"iv, Cohort 4, 0.5 mg/kg IV, infusion 2 hours, cohort Geometric Mean",1770 ng/mL
same,Cmax,"iv, Cohort 4, 0.5 mg/kg IV, infusion 2 hours, cohort Mean",1830 ng/mL
same,Cmax,"iv, Cohort 4, 0.5 mg/kg IV, infusion 2 hours, cohort Median",1970 ng/mL
same,Cmax,"iv, Cohort 5, 1 mg/kg IV infusion 4 hours, Geometric Mean",2580 ng/mL
same,Cmax,"iv, Cohort 5, 1 mg/kg IV infusion 4 hours, Mean",2650 ng/mL
same,Cmax,"iv, Cohort 5, 1 mg/kg IV infusion 4 hours, Median",2510 ng/mL
same,Cmax,"iv, Cohort 5, 1 mg/kg IV infusion 4 hours, individual subject",4000 ng/mL
same,Tmax,"iv, Tmax, Cohort 1, 0.05 mg/kg IV infusion, Geometric Mean",1 h
same,Tmax,"iv, Tmax, Cohort 1, 0.05 mg/kg IV infusion, Mean",1 h
same,Tmax,"iv, Tmax, Cohort 1, 0.05 mg/kg IV infusion, Median",1 h
same,Tmax,"iv, Tmax, Cohort 1, 0.05 mg/kg IV infusion, cohort Geometric Mean",1 h
same,Tmax,"iv, Tmax, Cohort 1, 0.05 mg/kg IV infusion, cohort Mean",1 h
same,Tmax,"iv, Tmax, Cohort 1, 0.05 mg/kg IV infusion, cohort Median",1 h
same,Tmax,"iv, Tmax, Cohort 1, 0.05 mg/kg IV infusion, individual subject",1 h
same,Tmax,"iv, Tmax, Cohort 1, 0.05 mg/kg IV infusion, individual subjects",1 h
same,Tmax,"iv, Tmax, Cohort 2, […] IV infusion, Geometric Mean",1 h
same,Tmax,"iv, Tmax, Cohort 2, […] IV infusion, Mean",1 h
same,Tmax,"iv, Tmax, Cohort 2, […] IV infusion, Median",1 h
same,Tmax,"iv, Tmax, Cohort 2, […] IV infusion, cohort Geometric Mean",1 h
same,Tmax,"iv, Tmax, Cohort 2, […] IV infusion, cohort Mean",1 h
same,Tmax,"iv, Tmax, Cohort 2, […] IV infusion, cohort Median",1 h
same,Tmax,"iv, Tmax, Cohort 2, […] IV infusion, individual subject",1 h
same,Tmax,"iv, Tmax, Cohort 2, […] IV infusion, individual subjects",1 h
same,Tmax,"iv, Tmax, Cohort 3, […] IV infusion, Geometric Mean",0.66 h
same,Tmax,"iv, Tmax, Cohort 3, […] IV infusion, Mean",0.71 h
same,Tmax,"iv, Tmax, Cohort 3, […] IV infusion, Median",0.5 h
same,Tmax,"iv, Tmax, Cohort 3, […] IV infusion, cohort Geometric Mean",0.66 h
same,Tmax,"iv, Tmax, Cohort 3, […] IV infusion, cohort Mean",0.71 h
same,Tmax,"iv, Tmax, Cohort 3, […] IV infusion, cohort Median",0.5 h
same,Tmax,"iv, Tmax, Cohort 3, […] IV infusion, individual subject",1 h
same,Tmax,"iv, Tmax, Cohort 3, […] IV infusion, individual subjects",1 h
same,Tmax,"iv, Tmax, Cohort 3b, […] IV infusion 2 hours, Geometric Mean",2 h
same,Tmax,"iv, Tmax, Cohort 3b, […] IV infusion 2 hours, Mean",2 h
same,Tmax,"iv, Tmax, Cohort 3b, […] IV infusion 2 hours, Median",2 h
same,Tmax,"iv, Tmax, Cohort 3b, […] IV infusion 2 hours, individual subject",2 h
same,Tmax,"iv, Tmax, Cohort 3b, infusion 2 hours, cohort Geometric Mean",2 h
same,Tmax,"iv, Tmax, Cohort 3b, infusion 2 hours, cohort Mean",2 h
same,Tmax,"iv, Tmax, Cohort 3b, infusion 2 hours, cohort Median",2 h
same,Tmax,"iv, Tmax, Cohort 3b, infusion 2 hours, individual subjects",2 h
same,Tmax,"iv, Tmax, Cohort 4, 0.5 mg/kg IV infusion 2 hours, Geometric Mean",2 h
same,Tmax,"iv, Tmax, Cohort 4, 0.5 mg/kg IV infusion 2 hours, Mean",2 h
same,Tmax,"iv, Tmax, Cohort 4, 0.5 mg/kg IV infusion 2 hours, Median",2 h
same,Tmax,"iv, Tmax, Cohort 4, 0.5 mg/kg IV infusion 2 hours, individual subject",2 h
same,Tmax,"iv, Tmax, Cohort 4, 0.5 mg/kg IV, infusion 2 hours, cohort Geometric Mean",2 h
same,Tmax,"iv, Tmax, Cohort 4, 0.5 mg/kg IV, infusion 2 hours, cohort Mean",2 h
same,Tmax,"iv, Tmax, Cohort 4, 0.5 mg/kg IV, infusion 2 hours, cohort Median",2 h
same,Tmax,"iv, Tmax, Cohort 4, 0.5 mg/kg IV, infusion 2 hours, individual subjects",2 h
same,Tmax,"iv, Tmax, Cohort 5, 1 mg/kg IV infusion 4 hours, Geometric Mean",4 h
same,Tmax,"iv, Tmax, Cohort 5, 1 mg/kg IV infusion 4 hours, Mean",4 h
same,Tmax,"iv, Tmax, Cohort 5, 1 mg/kg IV infusion 4 hours, Median",4 h
same,Tmax,"iv, Tmax, Cohort 5, 1 mg/kg IV infusion 4 hours, individual subject",4 h
same,half-life,"iv, […], t1/2, […] IV 1-hr infusion",10.5 h
same,half-life,"iv, […], t1/2, […] IV 1-hr infusion (only 3 participants)",19.9 h
same,half-life,"iv, […], t1/2, […] IV 2-hr infusion",13.2 h
same,Tmax,"iv, median Tmax, 0.05 and […] doses, 1-hour IV infusion (Cohorts 1, 2)",1.02 h
same,Tmax,"iv, median Tmax, 0.25 and 0.5 mg/kg doses, 2-hour IV infusion (Cohorts 3b, 4)",2.02 h
same,half-life,"iv, t1/2, Cohort 1, 0.05 mg/kg IV infusion, Geometric Mean",7.33 h
same,half-life,"iv, t1/2, Cohort 1, 0.05 mg/kg IV infusion, Mean",7.36 h
same,half-life,"iv, t1/2, Cohort 1, 0.05 mg/kg IV infusion, Median",7.29 h
same,half-life,"iv, t1/2, Cohort 1, 0.05 mg/kg IV infusion, cohort Geometric Mean",7.33 h
same,half-life,"iv, t1/2, Cohort 1, 0.05 mg/kg IV infusion, cohort Mean",7.36 h
same,half-life,"iv, t1/2, Cohort 1, 0.05 mg/kg IV infusion, cohort Median",7.29 h
same,half-life,"iv, t1/2, Cohort 1, 0.05 mg/kg IV infusion, individual subject",6.62 h
same,half-life,"iv, t1/2, Cohort 1, 0.05 mg/kg IV infusion, individual subjects",6.62 h
same,half-life,"iv, t1/2, Cohort 2, […] IV infusion, Geometric Mean",10.1 h
same,half-life,"iv, t1/2, Cohort 2, […] IV infusion, Mean",10.5 h
same,half-life,"iv, t1/2, Cohort 2, […] IV infusion, Median",9.2 h
same,half-life,"iv, t1/2, Cohort 2, […] IV infusion, cohort Geometric Mean",10.1 h
same,half-life,"iv, t1/2, Cohort 2, […] IV infusion, cohort Mean",10.5 h
same,half-life,"iv, t1/2, Cohort 2, […] IV infusion, cohort Median",9.2 h
same,half-life,"iv, t1/2, Cohort 3, […] IV infusion, Geometric Mean",13.6 h
same,half-life,"iv, t1/2, Cohort 3, […] IV infusion, Mean",15.2 h
same,half-life,"iv, t1/2, Cohort 3, […] IV infusion, Median",19 h
same,half-life,"iv, t1/2, Cohort 3, […] IV infusion, cohort Geometric Mean",13.6 h
same,half-life,"iv, t1/2, Cohort 3, […] IV infusion, cohort Mean",15.2 h
same,half-life,"iv, t1/2, Cohort 3, […] IV infusion, cohort Median",19 h
same,half-life,"iv, t1/2, Cohort 3b, […] IV infusion 2 hours, Geometric Mean",12.8 h
same,half-life,"iv, t1/2, Cohort 3b, […] IV infusion 2 hours, Mean",13.1 h
same,half-life,"iv, t1/2, Cohort 3b, […] IV infusion 2 hours, Median",13.1 h
same,half-life,"iv, t1/2, Cohort 3b, […] IV infusion 2 hours, individual subject",17.5 h
same,half-life,"iv, t1/2, Cohort 3b, infusion 2 hours, cohort Geometric Mean",12.8 h
same,half-life,"iv, t1/2, Cohort 3b, infusion 2 hours, cohort Mean",13.1 h
same,half-life,"iv, t1/2, Cohort 3b, infusion 2 hours, cohort Median",13.1 h
same,half-life,"iv, t1/2, Cohort 3b, infusion 2 hours, individual subjects",17.5 h
same,half-life,"iv, t1/2, Cohort 4, 0.5 mg/kg IV infusion 2 hours, Geometric Mean",15.7 h
same,half-life,"iv, t1/2, Cohort 4, 0.5 mg/kg IV infusion 2 hours, Mean",16.2 h
same,half-life,"iv, t1/2, Cohort 4, 0.5 mg/kg IV infusion 2 hours, Median",15.6 h
same,half-life,"iv, t1/2, Cohort 4, 0.5 mg/kg IV infusion 2 hours, individual subject",12.6 h
same,half-life,"iv, t1/2, Cohort 4, 0.5 mg/kg IV, infusion 2 hours, cohort Geometric Mean",15.7 h
same,half-life,"iv, t1/2, Cohort 4, 0.5 mg/kg IV, infusion 2 hours, cohort Mean",16.2 h
same,half-life,"iv, t1/2, Cohort 4, 0.5 mg/kg IV, infusion 2 hours, cohort Median",15.6 h
same,half-life,"iv, t1/2, Cohort 4, 0.5 mg/kg IV, infusion 2 hours, individual subjects",12.6 h
same,half-life,"iv, t1/2, Cohort 5, 1 mg/kg IV infusion 4 hours, Geometric Mean",18.6 h
same,half-life,"iv, t1/2, Cohort 5, 1 mg/kg IV infusion 4 hours, Mean",19.9 h
same,half-life,"iv, t1/2, Cohort 5, 1 mg/kg IV infusion 4 hours, Median",20.9 h
same,Tmax,"mean Tmax, Cohort 1, from the start of infusion",0.85 h
same,Tmax,"mean Tmax, Cohort 5, from the start of infusion",4.19 h
same,Vd,Cohort 1,25.5 L
same,Vd,Cohort 5,94.2 L
same,half-life,"mean half-life, Cohorts 1 to 3 (0.05 to […], 1-hour infusion), increasing with dose",7.22 to 15.2 h
same,half-life,"mean half-life, Cohorts 3b and 4 (0.25 and 0.5 mg/kg, 2-hour infusion), increasing with dose",13.1 to 16.2 h
same,half-life,"mean terminal half-life, range over dose groups, dose range 0.05 to 0.5 mg/kg (Cohorts 1 to 4)",7.4 to 19.9 h
same,half-life,"t1/2, single 1-hour infusion 0.05 mg/kg, Geometric Mean",7.33 h
same,half-life,"t1/2, single 1-hour infusion 0.05 mg/kg, Mean",7.36 h
same,half-life,"t1/2, single 1-hour infusion 0.05 mg/kg, Median",7.29 h
same,half-life,"t1/2, single 1-hour infusion 0.05 mg/kg, individual subjects",6.62 h

# From patent publication US20240115654A1, “INTRAVENOUS ADMINISTRATION OF ENGINEERED ANTIMICROBIAL AMPHIPHILIC PEPTIDES” (priority 2021, published 2024)
